Data taken from PubChem BioAssay AID254 (DTP/NCI, 2004).
Several values for one entry are separate records, joined by “and”; a condition that tells them apart may be missing. Equal entries are not always repeated. Inconclusive results and toxic doses are left out.

Test system: L1210 leukemia iv in BDF1 mice, survival T/C
Assay: NCI In Vivo Anticancer Drug Screen. Data for tumor model L1210 Leukemia (intravenous) in B6D2F1 (BDF1) mice
Conditions: higher = longer survival
Protocol: The antitumor activity of compounds was measured in mice bearing transplantable tumors. Survival or tumor size were measured and the results are expressed as the measurement made in the treated group (T) divided by the measurement made in the vehicle treated control group (C). The tumor model used in this assay is L1210 Leukemia (intravenous) in B6D2F1 (BDF1) mice

COc1cccc2c1C(=O)c1c(O)c3c(c(O)c1C2=O)CC(O)(C(=O)CO)CC3OC1CC(N)C(O)C(C)O1 (configuration not stated)
T/C (endpoint: mean survival time, dose: 0.75 mg/kg/injection, schedule: Q01DX005 (iv), vehicle: saline): 104 % of control
T/C (endpoint: mean survival time, dose: 1.5 mg/kg/injection, schedule: Q01DX005 (iv), vehicle: saline): 103 % of control
T/C (endpoint: mean survival time, dose: 3.0 mg/kg/injection, schedule: Q01DX005 (iv), vehicle: saline): 117 % of control
T/C (endpoint: mean survival time, dose: 4.0 mg/kg/injection, schedule: Q01DX005 (iv), vehicle: saline): 105 % of control
T/C (endpoint: mean survival time, dose: 5.0 mg/kg/injection, schedule: Q01DX005 (iv), vehicle: saline): 89 % of control
T/C (endpoint: mean survival time, dose: 6.0 mg/kg/injection, schedule: Q01DX005 (iv), vehicle: saline): 97 % of control
T/C (endpoint: mean survival time, dose: 7.0 mg/kg/injection, schedule: Q01DX005 (iv), vehicle: saline): 96 % of control
T/C (endpoint: mean survival time, dose: 8.0 mg/kg/injection, schedule: Q01DX005 (iv), vehicle: saline): 90 % of control

O=NN(CCCl)C(=O)NC1CCC(=O)NC1=O (configuration not stated)
T/C (endpoint: mean survival time, dose: 4.0 mg/kg/injection, schedule: Q01DX001 (ip), vehicle: other): 162 % of control and 175 % of control
T/C (endpoint: mean survival time, dose: 8.0 mg/kg/injection, schedule: Q01DX001 (ip), vehicle: other): 244 % of control and 260 % of control
T/C (endpoint: mean survival time, dose: 17.0 mg/kg/injection, schedule: Q01DX001 (ip), vehicle: other): 380 % of control and 428 % of control
T/C (endpoint: mean survival time, dose: 35.0 mg/kg/injection, schedule: Q01DX001 (ip), vehicle: other): 395 % of control and 570 % of control

O=NN(CCCl)C(=O)NC1CCS(=O)(=O)C1 (configuration not stated) (tested in a mixture with another compound)
T/C (endpoint: mean survival time, dose: 7.0 mg/kg/injection, schedule: Q01DX001 (ip), vehicle: other): 267 % of control
T/C (endpoint: mean survival time, dose: 11.0 mg/kg/injection, schedule: Q01DX001 (ip), vehicle: other): 239 % of control
T/C (endpoint: mean survival time, dose: 14.0 mg/kg/injection, schedule: Q01DX001 (oral), vehicle: other): 276 % of control
T/C (endpoint: mean survival time, dose: 16.0 mg/kg/injection, schedule: Q01DX001 (ip), vehicle: other): 281 % of control
T/C (endpoint: mean survival time, dose: 22.0 mg/kg/injection, schedule: Q01DX001 (oral), vehicle: other): 474 % of control
T/C (endpoint: mean survival time, dose: 24.0 mg/kg/injection, schedule: Q01DX001 (ip), vehicle: other): 281 % of control
T/C (endpoint: mean survival time, dose: 32.0 mg/kg/injection, schedule: Q01DX001 (oral), vehicle: other): 495 % of control
T/C (endpoint: mean survival time, dose: 36.0 mg/kg/injection, schedule: Q01DX001 (ip), vehicle: other): 232 % of control
T/C (endpoint: mean survival time, dose: 48.0 mg/kg/injection, schedule: Q01DX001 (oral), vehicle: other): 253 % of control
T/C (endpoint: mean survival time, dose: 72.0 mg/kg/injection, schedule: Q01DX001 (oral), vehicle: other): 213 % of control

NC(=O)c1csc(C2OC(CO)C(O)C2O)n1 (configuration not stated)
T/C (endpoint: median survival time, dose: 330.0 mg/kg/injection, schedule: Q01DX009 (ip), vehicle: water): 241 % of control
T/C (endpoint: median survival time, dose: 500.0 mg/kg/injection, schedule: Q01DX009 (ip), vehicle: water): 265 % of control
T/C (endpoint: median survival time, dose: 750.0 mg/kg/injection, schedule: Q01DX009 (ip), vehicle: water): 268 % of control

O=c1[nH]c(=O)n(C2CC(O)C(CO)O2)cc1F (configuration not stated)
T/C (endpoint: mean survival time, dose: 400.0 mg/kg/injection, schedule: Q01DX001 (ip), vehicle: saline): 122 % of control

O=NN(CCCl)C(=O)N[C@H]1CCCC[C@@H]1Cl
T/C (endpoint: mean survival time, dose: 5.0 mg/kg/injection, schedule: Q01DX001 (ip), vehicle: other): 108 % of control and 121 % of control
T/C (endpoint: mean survival time, dose: 15.0 mg/kg/injection, schedule: Q01DX001 (ip), vehicle: other): 153 % of control and 160 % of control
T/C (endpoint: mean survival time, dose: 20.0 mg/kg/injection, schedule: Q04DX004 (ip), vehicle: other): 319 % of control
T/C (endpoint: mean survival time, dose: 30.0 mg/kg/injection, schedule: Q01DX001 (ip), vehicle: other): 514 % of control
T/C (endpoint: mean survival time, dose: 30.0 mg/kg/injection, schedule: Q04DX004 (ip), vehicle: other): 95 % of control
T/C (endpoint: mean survival time, dose: 41.0 mg/kg/injection, schedule: Q01DX001 (ip), vehicle: other): 558 % of control and 564 % of control
T/C (endpoint: mean survival time, dose: 45.0 mg/kg/injection, schedule: Q01DX001 (ip), vehicle: other): 819 % of control
T/C (endpoint: mean survival time, dose: 45.0 mg/kg/injection, schedule: Q04DX004 (ip), vehicle: other): 512 % of control
T/C (endpoint: mean survival time, dose: 75.0 mg/kg/injection, schedule: Q01DX001 (ip), vehicle: other): 583 % of control and 650 % of control and 652 % of control
T/C (endpoint: mean survival time, dose: 83.0 mg/kg/injection, schedule: Q01DX001 (ip), vehicle: other): 376 % of control and 553 % of control
T/C (endpoint: mean survival time, dose: 90.0 mg/kg/injection, schedule: Q01DX001 (ip), vehicle: other): 460 % of control
